These results are taken from patent EP4755396A1, “TREATMENT OF P53 GENE MUTATION OR DEFECT NEGATIVE CANCER AND TUMOR PATIENTS” (Ascentawits Pharmaceuticals, Ltd., priority 2023, dated 2025).

Like-named read-outs stand apart in the source and are kept apart here.

The subject of one test is HPAF-II cells. Put plainly: In vitro cell proliferation inhibition (96-well, CTG, 72 hours). The format is cell-based. The settings on record: for inhibition at 0.06 µM / inhibition at 0.2 µM / inhibition at 1.667 µM / inhibition at 5 µM / inhibition at 7.5 µM / inhibition at 10 µM / inhibition at 15 µM: Homo sapiens, HPAF-II cells, 72 hours; for inhibition at 0.2 µM: AST 200 nM; for inhibition at 1.667 µM: AST 1667 nM; for inhibition at 5 µM: AST 5000 nM; for inhibition at 7.5 µM: Nutlin-3 7.5 µM; for inhibition at 10 µM: Nutlin-3 10 µM; for inhibition at 15 µM: Nutlin-3 15 µM. As for the experimental part:
(§1) • 1) H460 and HPAF-II cell suspensions were added to a 96-well plate at 100 µL per well, with a cell density of 2000 /well and 20000/well, respectively. • 2) The cells were cultured overnight in an incubator at 37°C, 5% CO2. • 3) Compound Treatment
(§2) Combination therapy: After 24 hours of cell plating, 99 µL of growth medium was supplied to each well. Each well was added with 0.5 µL of Nutlin-3 or RITA, shaken gently to ensure even mixing, and then placed in an incubator for 2 hours. Then each well was added with 0.5µL of test compounds at different concentrations, shaken gently to ensure even mixing, and then placed at 37°C, 5% CO2 in an incubator.
(§3) Monotherapy: After 24 hours of cell plating, 99.5 µL of growth medium was supplied to each well. Then each well was added with 0.5µL of test compounds at different concentrations, shaken gently to ensure even mixing, and then placed at 37°C, 5% CO2 in an incubator.
(§4) 4) The cell plate was placed in the incubator for 72 hours.
(§5) 5) The cell plate to be tested was placed at room temperature to equilibrium for 30 minutes, and 100µL of medium was discarded per well.
(§6) 6) 25µL of CTG reagent was added to each well, placed at a fast shaker to shake for 2 minutes, and placed at room temperature away from light for 30 minutes.
(§7) 7) The chemiluminescence signal value was read using a multifunctional microplate reader with a reading time of 1000 ms. The corresponding inhibition rate data were calculated.

A further test concerns H460 P53 KO #1. Put plainly: In vitro cell proliferation inhibition under normoxia, p53 knockout cells. The format is cell-based, human. As for the experimental part:
(§8) The p53 CRISPR/Cas9 KO plasmid (human) and p53 HDR plasmid (human) were purchased from Santa Cruz Company to construct H460 P53 KO cell lines, namely p53 knockout (KnockOut) H460 cell lines. Three groups of H460 P53 KO cell lines were constructed with numbers of H460 P53 KO # 1, H460 P53 KO # 7, and H460 P53 KO # 12.
(§9) After co-incubation for 15 minutes, they were added dropwise to the culture medium and mixed well.
(§10) After 48 h, 2 µg/mL puromycin was added for screening.
(§11) When the cell colonies grew to a sufficient size, single colonies were picked and cultured.
(§12) When the cell number reached a sufficient quantity, samples were collected for WB identification of the colonies.
(§13) H460 P53 KO cell lines, i.e. H460 P53 KO # 1, H460 P53 KO # 7, H460 P53 KO # 12 cell lines were used in experiments, respectively.
(§14) • 1) NCI-H460, NCI-H460 P53KO # 1 cell suspensions were added to a 96-well plate at 100 µL per well, with a cell density of 2000 /well. • 2) The cells were cultured overnight in an incubator at 37°C, 5% CO2. • 3) Compound Treatment
as §3
(§15) Combination therapy: After 24 hours of cell plating, 99 µL of medium was supplied to each well. Each well was added with 0.5µL of combined action compound, shaken gently to ensure even mixing, and then placed in an incubator for 2 hours. Then each well was added with 0.5µL of test compounds at different concentrations, shaken gently to ensure even mixing, and then placed at 37°C, 5% CO2 in an incubator.
as §4, §5, §6
(§16) 7) The chemiluminescence signal value was read using a multifunctional microplate reader with a reading time of 1000 ms.
(§17) 8) The ICso (half maximal inhibitory concentration) values were calculated using GraphPad Prism 5 software.

In test [1] the test system is H460 cells. Put plainly: In vitro cell proliferation inhibition under normoxia (96-well, CTG, 72 hours). The format is cell-based, human. As to conditions: for IC50 / inhibition at 0.0005 µM / inhibition at 0.0015 µM / inhibition at 0.25 µM / inhibition at 0.5 µM / inhibition at 1 µM: Homo sapiens, NCI-H460; for IC50: read-out: IC50; for inhibition at 0.25 µM: Nutlin-3 0.25 µM; for inhibition at 0.5 µM: Nutlin-3 0.5 µM; for inhibition at 1 µM: Nutlin-3 1 µM. As for the experimental part: Overview of the experimental process • 1) H460 cell suspension was added to a 96-well plate at 100 µL per well, with a cell density of 2000 /well. • 2) The cells were cultured overnight in an incubator at 37°C, 5% CO2. • 3) Compound Treatment
Monotherapy: After 24 hours of cell plating, each well was supplied with 99.5 µL of growth medium then added with 0.5µL of test compounds at different concentrations, shaken gently to ensure even mixing, and then placed at 37°C, 5% CO2 in an incubator.
Combination therapy: After 24 hours of cell plating, each well was supplied with 99 µL of growth medium then added with 0.5µL of the combined action compound Nutlin-3, shaken gently to ensure even mixing, and then placed in an incubator for 2 hours. Then each well was added with 0.5µL of test compounds at different concentrations, shaken gently to ensure even mixing, and then placed at 37°C, 5% CO2 in an incubator.
as §4, §5, §6, §16
8) IC50 was calculated with Graph Pad Prism 5 software.
as §1, §2, §3, §7, §14, §15, §17

The subject of a further test is H460 P53 KO #7. Put plainly: In vitro cell proliferation inhibition under normoxia, p53 knockout cells. The format is cell-based, human. Here is the method:
as §8, §9, §10, §11, §12, §13

For another test, the system named is H460 P53 KO #12. The description is as above. The format is cell-based, human. As for the experimental part: as §8, §9, §10, §11, §12, §13
Test [2] has as its system H460 cells. Put plainly: Cell cycle G2/M arrest, PI staining flow cytometry. The format is cell-based. As to conditions: first experiment, 0.1 nM AST-3424, 5 µM Nutlin-3, 24 hours, combination: AST-3424 first (Figure 5). Here is the method:
Overview of the experimental process: • 1) H460/HPAF-II cell suspensions were added to a 24-well plate, with a cell density of 100000 /well and 995 µL of medium per well. • 2) The cells were cultured overnight in an incubator at 37°C, 5% CO2. • 3) Compound Treatment
4) The cells were digested, centrifuged at 1000 g at 4°C, washed once with pre-cooled PBS, centrifuged at 1000 g at 4°C, and fixed with 1 mL of pre-cooled 70% ethanol at -20°C overnight.
5) The cells were centrifuged at 3000g at 4°C, washed once with pre-cooled PBS (phosphate buffer), centrifuged at 3000g at 4°C. Prepare PI staining solution. The cells were stained at 37°C away from light for 30 minutes, and stored in an ice bath away from light. Flow cytometric detection was performed on the same day, and the proportion of cells in different cell cycle phases was analyzed using FlowJo.

As for `O=[N+]([O-])c1ccc(C(OP(=O)(N2CC2)N2CC2)C(F)(F)F)cc1Oc1ccc(-c2ccc(F)cc2)c(F)c1` (centres unmarked) [AST], in the test with HPAF-II cells (AST monotherapy, p53 mutant HPAF-II cells), the “concentration needed to achieve an inhibition rate of 11-12%” value came to 60 nM. Moreover, the inhibition at 0.06 µM in the test on HPAF-II cells (AST 60 nM, RITA 2.5 µM, AST + RITA 60+2.5, read-out: Inhibition rate, experimental group 1) was 14.9%; in the test with HPAF-II cells (AST 60 nM, RITA 5 µM, AST + RITA 60+5, read-out: Inhibition rate, experimental group 2) it was 14.9%. Besides, the inhibition at 0.2 µM with HPAF-II cells (RITA 2.5 µM, AST + RITA 200+2.5, read-out: Inhibition rate, experimental group 3) turned out to be 11.8%; with HPAF-II cells (RITA 5 µM, AST + RITA 200+5, read-out: Inhibition rate, experimental group 4) it was 11.8%. Besides, the inhibition at 1.667 µM was 74.3% with HPAF-II cells (RITA 2.5 µM, AST + RITA 1667+2.5, read-out: Inhibition rate, experimental group 5) and 74.3% in the test on HPAF-II cells (RITA 5 µM, AST + RITA 1667+5, read-out: Inhibition rate, experimental group 6). Also, the inhibition at 5 µM in the test on HPAF-II cells (RITA 2.5 µM, AST + RITA 5000+2.5, read-out: Inhibition rate, experimental group 7) was found to be 68.8%; in the test on HPAF-II cells (RITA 5 µM, AST + RITA 5000+5, read-out: Inhibition rate, experimental group 8), 68.8%. The IC50 in the test on H460 P53 KO #1 (Homo sapiens, NCI-H460, H460 P53 KO # 1, normoxia, 72 hours, alone or with 3µM AST-3021 as labelled (Example 10)) was 264 nM; in the test on H460 cells [1] (H460 WT, normoxia, 72 hours, alone or with 3µM AST-3021 as labelled (Example 10)), 2.55 nM; in the test with H460 cells [1] (H460 cells, monotherapy, applicant's previous cancer cell proliferation inhibition test data), 6.87 nM; in the test with H460 P53 KO #7 (Homo sapiens, NCI-H460, H460 P53 KO # 7, normoxia, 72 hours, alone or with 3µM AST-3021 as labelled (Example 10)), 220 nM; in the test with H460 P53 KO #12 (Homo sapiens, NCI-H460, H460 P53 KO # 12, normoxia, 72 hours, alone or with 3µM AST-3021 as labelled (Example 10)), 28 nM. Also, the “Ratio (monotherapy), knockout/wild” value in the test with H460 P53 KO #1 (IC50 ratio, H460 P53 KO # 1 versus H460 WT) was 103.53; with H460 P53 KO #7 (IC50 ratio, H460 P53 KO # 7 versus H460 WT), 86.08; with H460 P53 KO #12 (IC50 ratio, H460 P53 KO # 12 versus H460 WT), 10.96. In the test with H460 cells [1] (AST monotherapy, p53 wild-type H460 cells), the “concentration required to achieve an inhibition rate of 11-12%” value is given as 1.5 nM. In addition, the inhibition at 0.0005 µM in the test with H460 cells [1] (H460 cells, 72 hours, AST 0.5 nM, RITA 0.025 µM, AST + RITA 0.5+0.025, read-out: Inhibition rate result, experimental group 1) is -0.29%; with H460 cells [1] (H460 cells, 72 hours, AST 0.5 nM, RITA 0.05 µM, AST + RITA 0.5+0.05, read-out: Inhibition rate result, experimental group 2), -0.29%. Also, the inhibition at 0.0015 µM worked out at 12.2% in the test on H460 cells [1] (H460 cells, 72 hours, AST 1.5 nM, RITA 0.025 µM, AST + RITA 1.5+0.025, read-out: Inhibition rate result, experimental group 3) and 12.2% in the test on H460 cells [1] (H460 cells, 72 hours, AST 1.5 nM, RITA 0.05 µM, AST + RITA 1.5+0.05, read-out: Inhibition rate result, experimental group 4).
For `COc1ccc(C2=NC(c3ccc(Cl)cc3)C(c3ccc(Cl)cc3)N2C(=O)N2CCNC(=O)C2)c(OC(C)C)c1` (racemic) [Nutlin-3], the inhibition at 7.5 µM in the test with HPAF-II cells (AST 20 nM, AST+Nutlin-3 20+7.5, read-out: Inhibition rate result, experimental group 1) amounted to 8.54%; in the test on HPAF-II cells (AST 60 nM, AST+Nutlin-3 60+7.5, read-out: Inhibition rate result, experimental group 4) it was 8.54%. Besides, the inhibition at 10 µM in the test with HPAF-II cells (AST 20 nM, AST+Nutlin-3 20+10, read-out: Inhibition rate result, experimental group 2) stood at 52.5%; in the test with HPAF-II cells (AST 60 nM, AST+Nutlin-3 60+10, read-out: Inhibition rate result, experimental group 5), 52.5%. Also, the inhibition at 15 µM was determined as 73.9% in the test on HPAF-II cells (AST 20 nM, AST+Nutlin-3 20+15, read-out: Inhibition rate result, experimental group 3) and 73.9% with HPAF-II cells (AST 60 nM, AST+Nutlin-3 60+15, read-out: Inhibition rate result, experimental group 6). Also, the inhibition at 0.25 µM with H460 cells [1] (H460 cells, 72 hours, AST 0.5 nM, AST+Nutlin-3 0.5+0.25, read-out: Inhibition rate result, experimental group 1) stood at 11.8%; in the test with H460 cells [1] (H460 cells, 72 hours, AST 1.5 nM, AST+Nutlin-3 1.5+0.25, read-out: Inhibition rate result, experimental group 4) it was 11.8%. For the same compound, the inhibition at 0.5 µM came out at 17.3% in the test on H460 cells [1] (H460 cells, 72 hours, AST 0.5 nM, AST+Nutlin-3 0.5+0.5, read-out: Inhibition rate result, experimental group 2) and 17.3% with H460 cells [1] (H460 cells, 72 hours, AST 1.5 nM, AST+Nutlin-3 1.5+0.5, read-out: Inhibition rate result, experimental group 5). For the same compound, the inhibition at 1 µM in the test on H460 cells [1] (H460 cells, 72 hours, AST 0.5 nM, AST+Nutlin-3 0.5+1, read-out: Inhibition rate result, experimental group 3) was determined as 18.3%; in the test on H460 cells [1] (H460 cells, 72 hours, AST 1.5 nM, AST+Nutlin-3 1.5+1, read-out: Inhibition rate result, experimental group 6), 18.3%. For the same compound, the “cell cycle (G0/G1, S, G2/M phases)” value in the test with H460 cells [2] is listed as “did not significantly alter the cell cycle”.
